Data set [1] has as its target T1, glutamine synthetase (Rattus norvegicus, UniProt P09606). Conditions: low dose intravenous, 24 hours prior to sacrifice. Here is the method:
(§1) The Hawkins data is represented with closed circles whereas the comparison tested rats are represented with “+” and open circle symbols. The monkey results are shown with triangles. N represents the number of animals studied.
(§2) The monkeys who received LSMSO at doses of 5 and 10 mg/kg were anesthetized for a four hour period prior to sacrifice.

The conditions of data set [2]: low doses. An excerpt:
As stated above, one unfortunate and well known side effect of MSO is that it is a convulsant.

Data set [3] addresses T1, glutamine synthetase. Conditions: cited from earlier work.
The target in data set [4] is glutamine synthetase (Macaca mulatta, UniProt F7CAM5). Here is the method: as §1, §2
Chain of glutamine synthetase (Macaca mulatta, UniProt F7CAM5) (F7CAM5 1-373): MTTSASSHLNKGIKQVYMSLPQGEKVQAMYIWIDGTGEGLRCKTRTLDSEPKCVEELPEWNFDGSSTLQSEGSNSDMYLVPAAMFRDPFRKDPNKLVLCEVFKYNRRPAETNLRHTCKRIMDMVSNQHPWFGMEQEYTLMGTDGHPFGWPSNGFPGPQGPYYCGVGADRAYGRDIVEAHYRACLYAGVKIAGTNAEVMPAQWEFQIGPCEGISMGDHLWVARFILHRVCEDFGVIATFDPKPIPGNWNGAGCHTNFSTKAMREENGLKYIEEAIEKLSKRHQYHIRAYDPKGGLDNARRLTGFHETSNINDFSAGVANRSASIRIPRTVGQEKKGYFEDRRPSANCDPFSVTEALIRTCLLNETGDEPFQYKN
The conditions of data set [5]: cited from earlier work.
For data set [6] the following is noted: rats vs dogs; cited from earlier work.
For data set [7] the following is noted: cited from earlier work. The source holds these as a separate data set.
For data set [8] the following is noted: rats, cited from earlier work; for paroxysmal symptoms: 100 mg/kg and 50 mg/kg, 20 hours; for brain glutamine level versus paroxysmal dose: 100 and 50 mg/kg vs 200 mg/kg, 20 hours after administration.
For data set [9] the following is noted: mice; cited from earlier work.
For data set [10] the following is noted: cited from earlier work. This is another data set of the same source.
Data set [11] has as its system glutamine synthetase. Conditions: cited from earlier work.
Data set [12] deals with γ-glutamylcysteine synthetase (Rattus norvegicus, UniProt P19468). As to conditions: cited from earlier work.
Chain of γ-glutamylcysteine synthetase (P48508 whole entry partner, one chain of several): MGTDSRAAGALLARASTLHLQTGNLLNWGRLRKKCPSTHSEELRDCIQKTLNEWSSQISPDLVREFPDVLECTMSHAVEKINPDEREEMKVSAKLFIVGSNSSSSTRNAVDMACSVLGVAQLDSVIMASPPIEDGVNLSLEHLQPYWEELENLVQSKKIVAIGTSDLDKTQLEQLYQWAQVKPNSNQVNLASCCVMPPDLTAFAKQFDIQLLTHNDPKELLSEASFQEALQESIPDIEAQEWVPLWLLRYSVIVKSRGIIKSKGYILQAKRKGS
The target in data set [13] is T1, glutamine synthetase. Conditions: MSO pretreatment, cited from earlier work.
The conditions of data set [14]: portacaval anastomosis rats infused with ammonium acetate, 150 mg/kg pretreatment; cited from earlier work.
In data set [15] the target is cortical glutamine synthetase (Rattus norvegicus, UniProt P09606). Conditions: model of acute hyperammonemia; cited from earlier work.
Chain of cortical glutamine synthetase (P09606 2-373 limits assumed): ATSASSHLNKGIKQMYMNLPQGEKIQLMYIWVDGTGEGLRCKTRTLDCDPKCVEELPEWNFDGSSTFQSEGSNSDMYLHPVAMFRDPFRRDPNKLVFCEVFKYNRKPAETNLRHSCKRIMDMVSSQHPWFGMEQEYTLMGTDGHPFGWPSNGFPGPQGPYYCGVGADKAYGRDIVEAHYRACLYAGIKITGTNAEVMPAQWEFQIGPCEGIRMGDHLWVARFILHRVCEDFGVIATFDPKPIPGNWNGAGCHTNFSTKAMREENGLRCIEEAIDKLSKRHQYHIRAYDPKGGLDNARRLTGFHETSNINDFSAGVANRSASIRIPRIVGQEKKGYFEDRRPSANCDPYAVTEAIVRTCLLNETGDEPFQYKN
In data set [16] the target is T2, gamma glutamyl cysteine synthetase (Rattus norvegicus, UniProt P19468).
T2 construct: host or cells: rat brain in vivo
T2 sequence (P19468 1-637): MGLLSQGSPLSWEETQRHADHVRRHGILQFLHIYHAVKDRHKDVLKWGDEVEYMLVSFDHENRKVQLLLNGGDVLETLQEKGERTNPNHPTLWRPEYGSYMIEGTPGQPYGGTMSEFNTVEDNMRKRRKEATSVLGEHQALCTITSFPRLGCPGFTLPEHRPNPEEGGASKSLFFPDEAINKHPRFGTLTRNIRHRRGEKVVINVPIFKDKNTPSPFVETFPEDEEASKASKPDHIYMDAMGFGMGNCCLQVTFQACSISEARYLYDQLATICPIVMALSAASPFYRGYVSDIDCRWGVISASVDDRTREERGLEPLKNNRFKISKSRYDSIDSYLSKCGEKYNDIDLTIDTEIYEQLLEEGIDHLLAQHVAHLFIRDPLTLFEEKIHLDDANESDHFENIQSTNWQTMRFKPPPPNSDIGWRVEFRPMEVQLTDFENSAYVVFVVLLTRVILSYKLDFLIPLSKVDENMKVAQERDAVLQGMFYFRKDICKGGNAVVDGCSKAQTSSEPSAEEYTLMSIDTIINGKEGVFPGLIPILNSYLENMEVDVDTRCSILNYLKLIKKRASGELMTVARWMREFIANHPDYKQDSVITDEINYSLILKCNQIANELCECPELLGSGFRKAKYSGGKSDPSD
Conditions: cited from earlier work.

The conditions of data set [17]: rats; did not affect MSO's inhibition of GS; cited from earlier work.

Here are results for four molecules from patent US6875792B2, “Dosage form of L-Methionine S-Sulfoximine” (MSO Pharma LLC, priority 2002, dated 2005).

Read-outs that look alike come from different tables or passages of the source.

T1 sequence (P09606 2-373 limits assumed): as the sequence (P09606 2-373 limits assumed) above

On to `CS(=N)(=O)CC[C@H](N)C(=O)O` (stereo partly drawn) [LSMSO, L-methionine S-sulfoximine], for which the “state of the rats prior to sacrifice” value in data set [1] is “awake and asymptomatic”. For the same molecule, in [2], the brain glutamine levels result was “lowered”. For the same molecule, in [2] (LSMSO alone), the seizures entry was “no seizures”. For the same molecule, the “glutamine synthetase inhibition at low doses” value in data set [3] (rats, doses of less than 20 mg/kg) was “dramatic decrease”.

For the molecule `CS(=N)(=O)CC[C@H](N)C(=O)O` (some centres unmarked) [MSO, methionine sulfoximine], in [4] (one monkey, 2.5 mg/kg, 24 hour period prior to sacrifice), the activity and appetite result is recorded as “normal”. Moreover, the “sensitivity to the glutamine synthetase inhibiting effect” value in [4] (primates compared to rats, low doses, FIG. 1) is recorded as “more sensitive”. Moreover, the “resistance to MSO relative to dogs” value in data set [5] (monkeys vs dogs) is given as “approximately 100 times”. Moreover, in data set [6], the “resistance to MSO relative to dogs” value is listed as “approximately 100 times”. Further, the tumor regression result in data set [7] (patients with far-advanced, nonresectable cancer) is listed as “no evidence of tumor regression”. The “hepatic or renal function or hematological status” value in [7] (patients, divided doses every 6 or 8 hours) was “no change”. Besides, in data set [8], the paroxysmal symptoms result is reported as “did not differ in any way from the control animals” and the “brain glutamine level versus paroxysmal dose” value is recorded as “decreased to the same degree”. In addition, in [8] (listed as MSI), the paroxysmal symptoms entry is “no paroxysmal symptoms” and the “brain glutamine level versus paroxysmal dose” value was “reduced to the same degree”. For the same molecule, in data set [8] (200 mg/kg), the “seizures at highest dose” value is “had seizures”. Further, the “in vivo ammonia toxicity” value in [9] is given as “marked decrease”. In addition, the “most effective dosage for episodic running behavior to repeated sounds” value in data set [10] (cats and rats) is reported as 7.5 mg/kg. Further, the “effect at 10 mg/kg” value in [10] (cats, 10 mg/kg) is recorded as “early convulsive episodes”. The “amounts that did not render cats susceptible” value in data set [10] (cats) is recorded as “less than 5 mg/kg”. For the same molecule, the “inhibition at 72 hours” value in [11] (brain, 72 hours) is “remains to a considerable degree”. Moreover, the “persistence of inhibitory effect on glutamine synthetase” value in data set [11] (brain) was “a long as seven days”. The “time of maximal inhibition in the brain” value in data set [11] (single injection) was 24 h. Moreover, the “inhibition of γ-glutamylcysteine synthetase” value in [12] is on record as “effective inhibitor”. Further, the glutamine synthetase activity result in data set [3] (rats, 5 to 200 mg/kg intraperitoneal) is listed as “decreased in proportion to the dose”. For the same molecule, in data set [3] (rats, 5 to 200 mg/kg intraperitoneal, except at the highest dose of 200 mg/kg), the toxicity result is recorded as “no evidence of toxicity”. In addition, the “time to raised brain concentration of ammonia” value in [3] (single intraperitoneal injection) was at most 2 h. Further, the cortical glutamine levels entry in data set [13] (group IV hyperammonemic rats) was “did not increase”. Besides, the “inhibition of glutamine synthetase activity” value in [13] (within the brain) is 64%. In data set [14], the brain edema result is on record as “ameliorated” and the intracranial pressure entry is “did not rise”. In data set [15], the “inhibition of cortical glutamine synthetase” value is listed as 64% and the “prevented increase in cortical glutamine concentration” value is listed as 13 mmol/kg.

On to `CCCCS(=N)(=O)CCC(N)C(=O)O` (centres unmarked) [buthionine sulfoximine], for which, in data set [16], the hyperammonemic brain swelling entry was “did not prevent”.

As for `CSCC[C@H](N)C(=O)O` [methionine], the “MSO-induced seizures on administration of methionine” value in [5] (monkeys and dogs) was “suppressed”. In addition, the “protection from the convulsant effect of MSO” value in [17] is “protected”.
